According to patent US8252737B2, “Antimicrobial peptides and methods of use” (priority 2004, dated 2012):
In brackets after ≈: the same amount, converted by molar mass. Square brackets hold non-standard residues; d marks the D form. Peptide text beside a SMILES is read from it.

Key:
gram-negative bacteria = experiment: MIC, microtiter dilution, Gram-negative bacteria (geometric mean of 6 strains); type: cell-based; settings: for MIC (μg/ml) Gram-negative: geometric mean MIC, Table 9
Procedure: The geometric mean MIC values from 6 microbial strains in this table were calculated to provide an overall evaluation of antimicrobial activity against gram-negative bacteria.
In Table 11, geometric mean MIC was calculated to provide an overall view of antimicrobial activity of the peptides against Gram-negative bacteria and was also used to calculate the therapeutic index.
Measurement of Antimicrobial Activity—Minimal inhibitory concentrations (MICs) were determined using a standard microtiter dilution method in LB (Luria-Bertani) no-salt medium (10 g of tryptone and 5 g of yeast extract per liter). Briefly, cells were grown overnight at 37° C. in LB and diluted in the same medium. […] Plates were incubated at 37° C. for 24 hours and MICs determined as the lowest peptide concentration that inhibited growth. Alternatively, minimal inhibitory concentrations were determined using a standard microtiter dilution method in a Mueller-Hinton (MH) medium. Briefly, cells were grown overnight at 37° C. in MH broth and diluted in the same medium. […] Plates were incubated at 37° C. for 24 hours and MICs determined as the lowest peptide concentration that inhibited growth. However, for MIC determination of Pseudomonas aeruginosa clinical isolates, brain heart infusion (BH1) medium was used instead of MH broth. In addition, the bacteria were diluted to a final inoculum of 1×10^6 colony-forming units/ml.

[1] = Circular dichroism spectroscopy of helical structure (benign buffer and 50% TFE); type: physicochemical
Procedure: To determine the secondary structure of peptides in different environments, circular dichroism (CD) spectra of the peptide analogs were measured under physiologically related pH and ionic strength (100 mM KCl, 50 mM aq. PO4, pH 7 referred to as benign conditions) and also in 50% TFE to mimic the hydrophobic environment of the membrane. […] On the non-polar face, the native L-Val residue was critical in maintaining α-helical structure. […] Even the substitution with L-Ala, which is known to have the highest α-helical propensity of all 20 amino acids (34), could not stabilize the α-helical structure. […] It is noteworthy that, on the non-polar face, the magnitude of the helical content of L-peptides in benign buffer was related to the hydrophobicity of the substituting amino acids, i.e., NLL>NVL>NAL>NSL, NKL, again showing the importance of hydrophobicity on the non-polar face in maintaining the α-helical structure. […] However, whether L- or D-substitutions were made on the non-polar face, high helical structure could be induced by the hydrophobic environment of 50% TFE, a mimic of the membrane's hydrophobicity and α-helix inducing ability (Table 3).
To determine the secondary structure of the D-enantiomeric peptides in different environments, CD spectra of the peptide analogs were measured under benign conditions (100 mM KCl, 50 mM KH2PO4/K2HPO4, pH 7.4, referred to as KP buffer) and also in 50% trifluoroethanol (TFE) to mimic the hydrophobic environment of the membrane. […] However, in the presence of 50% TFE, all three L-peptides were fully folded α-helical structures with similar ellipticities and helicity (Table 4).
Characterization of Helical Structure—The mean residue molar ellipticities of peptides were determined by circular dichroism (CD) spectroscopy, using a Jasco J-720 spectropolarimeter (Jasco, Easton, Md.), at 25° C. under benign conditions (50 mM KH2PO4/K2HPO4/100 mM KCl, pH 7), as well as in the presence of an α-helix inducing solvent, 2,2,2-trifluoroethanol (TFE) (50 mM KH2PO4/K2HPO4/100 mM KCl, pH 7 buffer/50% TFE). A 10-fold dilution of a ˜500 μM stock solution of the peptide analogs was loaded into a 0.02 cm fused silica cell and its ellipticity scanned from 190 to 250 nm. The values of molar ellipticities of the peptide analogs at a wavelength of 222 nm were used to estimate the relative α-helicity of the peptides.

[2] = 25° C., relative to NAL in 50% TFE
[3] = 25° C., benign buffer (100 mM KCl, 50 mM PO4 pH 7.0)
[4] = 25° C., benign buffer diluted 1:1 (v/v) with TFE
[5] = 25° C., benign buffer, relative to NAL in 50% TFE

Row | Compound | MIC (μg/ml) Gram-negative (gram-negative bacteria) [µg/mL] | % helix 50% TFE [1, 2] [%] | [θ]222 Benign [1, 3] | [θ]222 50% TFE [1, 4] | % helix Benign [1, 5] [%] | MIC (μg/ml) GM (gram-negative bacteria; geometric mean of MIC values from all 6 Gram-negative strains of Table 11) [µg/mL] | [θ]222 Benign ([1]; 5° C., 100 mM KCl, 50 mM PO4 pH 7.4) [deg · cm^2 · dmol^−1] | % helix 50% TFE ([1]; 5° C., relative to D-V681 in 50% TFE) [%] | [θ]222 50% TFE ([1]; 5° C., benign buffer pH 7.4 containing 50% TFE) [deg · cm^2 · dmol^−1] | % helix Benign ([1]; 5° C., pH 7.4 benign, relative to D-V681 in 50% TFE) [%] | geometric mean MIC against Gram-negative bacteria (gram-negative bacteria; 6 strains of Table 7) [µg/mL]
1 | CC[C@H](C)[C@H](NC(=O)[C@H](C)NC(=O)[C@H](CCCCN)NC(=O)[C@H](CC(C)C)NC(=O)[C@H](C)NC(=O)[C@@H](NC(=O)[C@H](Cc1c[nH]cn1)NC(=O)[C@H](CC(C)C)NC(=O)[C@@H](NC(=O)[C@@H](NC(=O)[C@H](CCCCN)NC(=O)[C@@H](NC(=O)[C@H](C)NC(=O)[C@H](NC(=O)[C@H](CCCCN)NC(=O)[C@H](Cc1ccccc1)NC(=O)[C@@H](NC(=O)[C@H](CCCCN)NC(=O)[C@H](CC(C)C)NC(=O)[C@H](Cc1ccccc1)NC(=O)[C@H](CO)NC(=O)[C@H](CCCCN)NC(=O)[C@H](Cc1c[nH]c2ccccc12)NC(=O)[C@H](CCCCN)NC(C)=O)[C@@H](C)O)C(C)C)C(C)C)[C@@H](C)O)C(C)C)[C@@H](C)O)C(=O)N[C@@H](CO)C(=O)N[C@@H](CO)C(N)=O [PVD] (Ac-KWKSFLKTFK[dV]AVKTVLHTALKAISS-NH2) | 6.1 (≈ 2.05 µM) | 72 | −2,400 deg · cm^2 · dmol^−1 | −20,800 deg · cm^2 · dmol^−1 | 8 | – | – | – | – | – | –
2 | CC[C@H](C)[C@H](NC(=O)[C@H](C)NC(=O)[C@H](CCCCN)NC(=O)[C@H](CC(C)C)NC(=O)[C@H](C)NC(=O)[C@@H](NC(=O)[C@H](Cc1c[nH]cn1)NC(=O)[C@H](CC(C)C)NC(=O)[C@@H](NC(=O)[C@@H](NC(=O)[C@H](CCCCN)NC(=O)[C@@H](NC(=O)[C@H](C)NC(=O)[C@@H](C)NC(=O)[C@H](CCCCN)NC(=O)[C@H](Cc1ccccc1)NC(=O)[C@@H](NC(=O)[C@H](CCCCN)NC(=O)[C@H](CC(C)C)NC(=O)[C@H](Cc1ccccc1)NC(=O)[C@H](CO)NC(=O)[C@H](CCCCN)NC(=O)[C@H](Cc1c[nH]c2ccccc12)NC(=O)[C@H](CCCCN)NC(C)=O)[C@@H](C)O)C(C)C)[C@@H](C)O)C(C)C)[C@@H](C)O)C(=O)N[C@@H](CO)C(=O)N[C@@H](CO)C(N)=O [PAD] (Ac-KWKSFLKTFK[dA]AVKTVLHTALKAISS-NH2) | 4.3 (≈ 1.46 µM) | 94 | −3,050 deg · cm^2 · dmol^−1 | −27,300 deg · cm^2 · dmol^−1 | 11 | – | – | – | – | – | –
3 | CC[C@H](C)[C@H](NC(=O)[C@H](C)NC(=O)[C@H](CCCCN)NC(=O)[C@H](CC(C)C)NC(=O)[C@H](C)NC(=O)[C@@H](NC(=O)[C@H](Cc1c[nH]cn1)NC(=O)[C@H](CC(C)C)NC(=O)[C@@H](NC(=O)[C@@H](NC(=O)[C@H](CCCCN)NC(=O)[C@@H](C)NC(=O)[C@H](C)NC(=O)[C@H](CO)NC(=O)[C@H](CCCCN)NC(=O)[C@H](Cc1ccccc1)NC(=O)[C@@H](NC(=O)[C@H](CCCCN)NC(=O)[C@H](CC(C)C)NC(=O)[C@H](Cc1ccccc1)NC(=O)[C@H](CO)NC(=O)[C@H](CCCCN)NC(=O)[C@H](Cc1c[nH]c2ccccc12)NC(=O)[C@H](CCCCN)NC(C)=O)[C@@H](C)O)[C@@H](C)O)C(C)C)[C@@H](C)O)C(=O)N[C@@H](CO)C(=O)N[C@@H](CO)C(N)=O [NAD] | – | 85 | −2,850 deg · cm^2 · dmol^−1 | −24,650 deg · cm^2 · dmol^−1 | 10 | 3.1 (≈ 1.06 µM) | −4000 | 89 | −25000 | 14 | –
4 | CC[C@H](C)[C@H](NC(=O)[C@H](C)NC(=O)[C@H](CCCCN)NC(=O)[C@H](CC(C)C)NC(=O)[C@H](C)NC(=O)[C@@H](NC(=O)[C@H](Cc1c[nH]cn1)NC(=O)[C@H](CC(C)C)NC(=O)[C@@H](NC(=O)[C@@H](NC(=O)[C@H](CCCCN)NC(=O)[C@@H](NC(=O)[C@H](C)NC(=O)[C@@H](CC(C)C)NC(=O)[C@H](CCCCN)NC(=O)[C@H](Cc1ccccc1)NC(=O)[C@@H](NC(=O)[C@H](CCCCN)NC(=O)[C@H](CC(C)C)NC(=O)[C@H](Cc1ccccc1)NC(=O)[C@H](CO)NC(=O)[C@H](CCCCN)NC(=O)[C@H](Cc1c[nH]c2ccccc12)NC(=O)[C@H](CCCCN)NC(C)=O)[C@@H](C)O)C(C)C)[C@@H](C)O)C(C)C)[C@@H](C)O)C(=O)N[C@@H](CO)C(=O)N[C@@H](CO)C(N)=O [PLD] (Ac-KWKSFLKTFK[dL]AVKTVLHTALKAISS-NH2) | 5.0 (≈ 1.67 µM) | 90 | −2,950 deg · cm^2 · dmol^−1 | −26,100 deg · cm^2 · dmol^−1 | 10 | – | – | – | – | – | –
5 | CC[C@H](C)[C@H](NC(=O)[C@H](C)NC(=O)[C@H](CCCCN)NC(=O)[C@H](CC(C)C)NC(=O)[C@H](C)NC(=O)[C@@H](NC(=O)[C@H](Cc1c[nH]cn1)NC(=O)[C@H](CC(C)C)NC(=O)[C@@H](NC(=O)[C@@H](NC(=O)[C@H](CCCCN)NC(=O)[C@@H](NC(=O)[C@H](C)NC(=O)[C@@H](CO)NC(=O)[C@H](CCCCN)NC(=O)[C@H](Cc1ccccc1)NC(=O)[C@@H](NC(=O)[C@H](CCCCN)NC(=O)[C@H](CC(C)C)NC(=O)[C@H](Cc1ccccc1)NC(=O)[C@H](CO)NC(=O)[C@H](CCCCN)NC(=O)[C@H](Cc1c[nH]c2ccccc12)NC(=O)[C@H](CCCCN)NC(C)=O)[C@@H](C)O)C(C)C)[C@@H](C)O)C(C)C)[C@@H](C)O)C(=O)N[C@@H](CO)C(=O)N[C@@H](CO)C(N)=O [PSD] | 2.9 (≈ 0.979 µM) | 90 | −2,800 deg · cm^2 · dmol^−1 | −26,000 deg · cm^2 · dmol^−1 | 10 | – | – | – | – | – | –
6 | Ac-KWKSFLKTFKSALKTVLHTALKAISS-NH2 [NLL] | – | 98 | −20,600 deg · cm^2 · dmol^−1 | −28,250 deg · cm^2 · dmol^−1 | 71 | – | – | – | – | – | 12.7
7 | CC[C@H](C)[C@H](NC(=O)[C@H](C)NC(=O)[C@H](CCCCN)NC(=O)[C@H](CC(C)C)NC(=O)[C@H](C)NC(=O)[C@@H](NC(=O)[C@H](Cc1c[nH]cn1)NC(=O)[C@H](CC(C)C)NC(=O)[C@@H](NC(=O)[C@@H](NC(=O)[C@H](CCCCN)NC(=O)[C@H](NC(=O)[C@H](C)NC(=O)[C@H](CO)NC(=O)[C@H](CCCCN)NC(=O)[C@H](Cc1ccccc1)NC(=O)[C@@H](NC(=O)[C@H](CCCCN)NC(=O)[C@H](CC(C)C)NC(=O)[C@H](Cc1ccccc1)NC(=O)[C@H](CO)NC(=O)[C@H](CCCCN)NC(=O)[C@H](Cc1c[nH]c2ccccc12)NC(=O)[C@H](CCCCN)NC(C)=O)[C@@H](C)O)C(C)C)[C@@H](C)O)C(C)C)[C@@H](C)O)C(=O)N[C@@H](CO)C(=O)N[C@@H](CO)C(N)=O [NVD] | 3.3 (≈ 1.11 µM) | 90 | −2,800 deg · cm^2 · dmol^−1 | −26,000 deg · cm^2 · dmol^−1 | 10 | – | – | – | – | – | –
